Assay results published in patent US20050026846A1, “Pharmaceutical compositions comprising alkanoyl L-carnitine in combination with a statine for treating pathologies brought about by an altered lipid metabolism” (SIGMA-TAU INDUSTRIE FARMACEUTICHE RIUNITE S.p.A., priority 1997, published 2005).

Key:
Assay type in all cases: in vivo, human
[1] = tested on: hypertriglyceridaemic patients; experiment: Clinical study: cholesterolaemia (blood-chemistry tests); settings: for Cholesterolaemia, statistical significance (p) vs baseline: propionyl L-carnitine 2 g/day, Student's t-test for paired data
Description: (§1) Eight hypertriglyceridaemic patients (3 males and 5 females) were recruited for the study, with a mean age of 65 years (range: 52-70), presenting mean triglyceridaemia values of 213.0±21.18 mg % and mean cholesterolaemia values of 158.1±25.90 mg %, who were put on a dietary regimen consisting in 40 Kcal/kg, 1.2 g/kg proteins and 1.4 g/kg lipids daily.
(§2) After baseline determinations of cholesterolaemia, triglyceridaemia, bilirubinaemia, alkaline phosphatase, protidaemia, GOT and GPT, all subjects took propionyl L-carnitine 2 g/day os for 60 days, which was discontinued on day 61 for a 30-day wash-out period. Simvastatin was then administered at a dose of 10 mg/day os in the evening for 30 days, followed by a further 30-day washout period and then by another 30-day period during which propionyl L-carnitine 1.5 g/day os and simvastatin 5 mg/day os were administered simultaneously.
(§3) Blood-chemistry tests were performed before and after each course of drug treatment and at the end of each wash-out period. The data obtained were subjected to statistical analysis using Student's t-test for paired data (Table 1).

[2] = tested on: hypertriglyceridaemic patients; experiment: Clinical study: triglyceridaemia (blood-chemistry tests); settings: for Triglyceridaemia, statistical significance (p) vs baseline: propionyl L-carnitine 2 g/day, Student's t-test for paired data
Description: as §1, §2, §3

[3] = tested on: hypertriglyceridaemic patients; experiment: Clinical study: side effects; settings: propionyl L-carnitine 2 g/day or 1.5 g/day os; simvastatin 10 or 5 mg/day os
Description: as §1, §2
All patients completed the study according to the procedures described. […] During the wash-out period the mean triglyceridaemia value recorded was 202.5±9.71 mg %, whereas the mean baseline value was 213.0±21.1 1 mg % (Table 2).

[4] = 30 days os, simvastatin 10 mg/day, combination 1.5 g/day + 5 mg/day

Q: What does the source list for `CCC(C)(C)C(=O)O[C@H]1C[C@@H](C)C=C2C=C[C@H](C)[C@H](CC[C@@H]3C[C@@H](O)CC(=O)O3)[C@H]21` [simvastatin, reference compound]?
A: Cholesterolaemia, statistical significance (p) vs baseline [1, 4]: p < 0.0585; mean cholesterolaemia value after treatment ([1]; after 30 days os, simvastatin 10 mg/day, or propionyl L-carnitine 1.5 g/day + simvastatin 5 mg/day, baseline 158.12±25.90 mg %, 8 patients): 156.75±22.82 mg %; mean post-treatment triglyceride value ([2]; after 30 days os, simvastatin 10 mg/day, or propionyl L-carnitine 1.5 g/day + simvastatin 5 mg/day, baseline 213.0±21.18 mg %, 8 patients): 193.8±22.63 mg %

Q: Which “side effects attributable to the drugs during the study period” value [3] does the source give for `CCC(=O)O[C@H](CC(=O)[O-])C[N+](C)(C)C` [propionyl L-carnitine] here?
A: no side effects

Q: What about the “Cholesterolaemia, statistical significance (p) vs baseline” value [1, 4] of the same compound?
A: p < 0.4795

Q: What about the “Cholesterolaemia, statistical significance (p) vs baseline” value ([1]; 60 days os) of the same compound?
A: p < 0.0198

Q: And the “Triglyceridaemia, statistical significance (p) vs baseline” value [2, 4]?
A: < 0.3671

Q: And the “Triglyceridaemia, statistical significance (p) vs baseline” value ([2]; 30 days os, simvastatin 10 mg/day, combination 1.5 g/day + 5 mg/day, listed as Propionyl L-carnitine)?
A: p < 0.3671

Q: And the “Triglyceridaemia, statistical significance (p) vs baseline” value ([2]; 60 days os)?
A: < 0.0272

Q: What about the “Triglyceridaemia, statistical significance (p) vs baseline” value ([2]; 60 days os, listed as Propionyl L-carnitine) of the same compound?
A: p < 0.0272

Q: What about the “triglyceridaemia after treatment, significance (p): propionyl L-carnitine vs simvastatin” value ([2]; each administered alone) of the same compound?
A: < 0.167
